# Several values for one entry are separate records, joined by “and”; a condition that tells them apart may be missing. Identical values can stand only once. Like-named read-outs stand apart in the source and are kept apart here. Where a SMILES comes first, the peptide text is derived from it.
# Columns and labels:
# [1] = test system: primary human monocyte-derived macrophages; experiment: MIF-mediated DiI-oxLDL uptake / foam cell formation; type: cell-based; details: 80 nM MIF; AMD3100 10 µM
# Description: (§1) After washing with imaging solution (MEM without phenol red containing 30 mM HEPES, 0.5 g/L NaHCO3, pH 7.4, and 0.2% BSA), cells were exposed to 50 µg mL^−1 1,1′-dioctadecyl-3,3,3′3′-tetramethylindocarbocyanine-labeled oxidized LDL (DiI-oxLDL) or DiI-labeled native LDL (DiI-LDL) for 30 min at 4 °C, followed by incubation at 37 °C for 20 min. Cells were washed with ice-cold imaging solution (pH 3.5), fixed, and counter-stained with Hoechst 33258.
# [2] = test system: primary human monocyte-derived macrophages; experiment: MIF-mediated DiI-LDL uptake / foam cell formation; type: cell-based; details: 80 nM MIF
# Description: as §1
# pAMPK/AMPK in HCM = experiment: MIF/CD74-triggered AMPK signaling in human cardiomyocytes (HCM); type: cell-based
# Description: HCMs (2 × 10^5 per well) were plated in 12-well plates and maintained for 2 days with cultured medium containing 5% FCS. Before stimulation, medium was replaced by fresh myocyte basal medium containing 0.05% FCS and HCMs rested for 16 h. Surface CD74 expression on HCMs was verified by flow cytometry (FITC-conjugated anti-human CD74 (1:100 dilution), FITC-IgG2 (isotype control) (BD Pharmingen), 1 h/4 °C in the dark, BD FACSVerse™ flow cytometer, FlowJo software). […] After treatment, cells were lysed and subjected to SDS-PAGE (10%)/Western blotting using NuPAGE® lithium dodecyl sulfate (LDS)/dithiothreitol (DTT) lysis buffer-containing PhosSTOP^TM reagent (Roche Applied Science). […] Anti-rabbit horse-radish peroxidase (HRP)-conjugated antibody (1:10000, GE Healthcare, Freiburg, Germany) was used for development and signals quantitated by chemiluminescence using an Odyssey® Fc imager. Unprocessed scans of the Western blots are supplied in the Source Data file.
# MIF/CD74 = details: read-out: IC50 value for MIF/CD74 binding; ref [16],[43]; cited from earlier work
# Source text: Specificity of the inhib ...
# in vitro [3] = details: C57/BL6, mouse, plasma
# Description: (§2) Mouse plasma was prepared from blood of wildtype C57/BL6 mice by standard procedure. […] Samples were then diluted in 2x Novex Tricine SDS sample buffer (Life Technologies) at a ratio of 1:6, electrophoresed in a 10–20% Tricine gel, and red fluorescent bands directly imaged with an Odyssey® Fc imager. Human plasma was prepared from blood of healthy volunteers by standard procedure.
# in vitro [4] = details: human, plasma
# Description: as §2
# MIF = target: T1, MIF (Homo sapiens, UniProt P14174); experiment: Fluorescence spectroscopic titration of CXCR4 ectodomain peptides (and ISO-1) with MIF; type: binding
# T1 construct: made in house; host or cells: E. coli BL21/DE3 (pET11b)
# T1 sequence (P14174 2-115): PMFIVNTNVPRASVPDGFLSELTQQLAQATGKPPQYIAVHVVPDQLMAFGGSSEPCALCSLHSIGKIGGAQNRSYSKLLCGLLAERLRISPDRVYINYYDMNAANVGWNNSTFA
# Description: Fluorescence spectroscopic titrations were performed using a JASCO FP-6500 fluorescence spectrophotometer.
# [5] = test system: primary mouse spleen B lymphocytes; experiment: MIF-triggered Transwell chemotaxis of primary splenic B cells; type: cell-based; details: 16 nM MIF; peptide at 5-fold molar excess (80 nM);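 further: migration tracked over 4 h at 37 °C, read out as transmigrated cells counted by flow cytometry with absolute counting beads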
# Description: Briefly, splenic B cells were isolated by negative depletion using a Pan B Cell Isolation Kit (Miltenyi Biotec, Bergisch Gladbach, Germany). […] Chemotaxis was followed for 4 h at 37 °C in a humidified atmosphere of 5% CO2. Migrated cells were counted by flow cytometry using CountBright™ Absolute Counting Beads (Molecular Probes-Invitrogen).
# [6] = Circular dichroism (CD) spectroscopy (conformation, concentration dependence); type: physicochemical; details: far-UV CD at 1-20 µM, 10 mM sodium phosphate pH 7.4, 1% HFIP; region 210-225 nm; compared with msR4M-L1
# Description: Briefly, far-UV CD measurements were carried out between 195 and 250 nm. The response time was set at 1 s, intervals at 0.1 nm, and bandwidth at 1 nm. All spectra were measured at RT and represent an average of three recorded spectra. Scans were recorded for the ectodomain mimic peptides at a concentration of 1–20 µM in 10 mM sodium phosphate buffer, pH 7.4, containing 1% HFIP, following dilution of freshly made peptide stock solution in HFIP (4 °C) into the buffer-containing cuvette. […] The background spectrum of buffer/1% HFIP alone was subtracted from the spectra of the peptides.
# Description for in vivo: Plasma was immediately separated by centrifugation at 3000 rpm for 10 min at 4 °C, and placed on ice protected from light. Plasma aliquots were diluted (1:1) with SDS-PAGE sample buffer, boiled, analyzed in 10–20% Tricine SDS-PAGE gels, and red fluorescent bands imaged by Odyssey® Fc imager.
smiles,measurement,setting,value
c1cc(CN2CCCNCCNCCCNCC2)ccc1CN1CCCNCCNCCCNCC1 [AMD3100],effect on MIF-mediated DiI-oxLDL uptake,[1],blocked
same,"DiI-LDL uptake (rel. units), MIF + AMD3100","[2]; control ~1, MIF alone 2.09-3.63, individual experiments (four-times-two)",0.6486 and 2.2972 and 2.822 and 1.2299 and 1.463 and 1.618 and 1.791 and 1.537
COC(=O)CC1CC(c2ccc(O)cc2)=NO1 (centres unmarked) [ISO-1],"Fig. 4e, Mean Diff, (Tukey's multiple comparisons test)",pAMPK/AMPK in HCM; B-C: MIF alone vs. MIF + ISO-1 3.1,0.3348
same,"Fig. 4e, Mean Diff, (Tukey's multiple comparisons test)",pAMPK/AMPK in HCM; B-D: MIF alone vs. MIF + ISO-1 15.6,0.4593
same,"Fig. 4e, Mean Diff, (Tukey's multiple comparisons test)",pAMPK/AMPK in HCM; B-E: MIF alone vs. MIF + ISO-1 31.3,0.6907
same,"Fig. 4e, Mean Diff, (Tukey's multiple comparisons test)",pAMPK/AMPK in HCM; B-F: MIF alone vs. MIF + ISO-1 62.5,0.8729
same,IC50,MIF/CD74,10 µM
CC[C@H](C)[C@H](NC(=O)[C@H](Cc1ccc(O)cc1)NC(=O)[C@H](CCCNC(=N)N)NC(=O)[C@H](CC(=O)O)NC(=O)CCCCCCCCCCCNC(=O)CCCCCNC(=O)[C@H](CCCCN)NC(=O)[C@H](CS)NC(=O)[C@H](CC(C)C)NC(=O)[C@H](Cc1ccccc1)NC(=O)[C@H](CC(N)=O)NC(=O)CNC(=O)[C@H](Cc1ccccc1)NC(=O)[C@H](Cc1ccc(O)cc1)NC(=O)[C@H](Cc1c[nH]c2ccccc12)NC(=O)[C@H](CC(N)=O)NC(=O)[C@H](C)NC(=O)[C@@H](NC(=O)[C@H](C)NC(=O)[C@H](CC(=O)O)NC(=O)c1ccc2c(c1)C(=O)OC21c2ccc(N(C)C)cc2Oc2cc(N(C)C)ccc21)C(C)C)C(=O)N[C@@H](CS)C(=O)N[C@@H](CC(=O)O)C(=O)N[C@@H](CCCNC(=N)N)C(=O)N[C@@H](Cc1ccccc1)C(=O)N[C@@H](Cc1ccc(O)cc1)C(=O)N1CCC[C@H]1C(=O)N[C@@H](CC(N)=O)C(=O)N[C@@H](CC(=O)O)C(=O)N[C@@H](CC(C)C)C(=O)N[C@@H](Cc1c[nH]c2ccccc12)C(=O)N[C@H](C(N)=O)C(C)C [TAMRA-msR4M-L1],level at 24 h,"in vivo; C57/BL6, mouse, 50 ug",> 0.1 µg/mL
same,level at 48 h,"in vivo; C57BL/6, mouse, ip, 50 ug per mouse",~0.1 µg/mL
same,half-life at 482 nM,in vitro [3],~20 h
CC[C@H](C)[C@H](NC(=O)[C@H](Cc1ccc(O)cc1)NC(=O)[C@H](CCCNC(=N)N)NC(=O)[C@H](CC(=O)O)NC(=O)CCCCCCCCCCCNC(=O)CCCCCNC(=O)[C@H](CCCCN)NC(=O)[C@H](CS)NC(=O)[C@H](CC(C)C)NC(=O)[C@H](Cc1ccccc1)NC(=O)[C@H](CC(N)=O)NC(=O)CNC(=O)[C@H](Cc1ccccc1)NC(=O)[C@H](Cc1ccc(O)cc1)NC(=O)[C@H](Cc1c[nH]c2ccccc12)NC(=O)[C@H](CC(N)=O)NC(=O)[C@H](C)NC(=O)[C@@H](NC(=O)[C@H](C)NC(=O)[C@H](CC(=O)O)NC(=O)CCCCCNC(=O)CCCC[C@@H]1SC[C@@H]2NC(=O)N[C@@H]21)C(C)C)C(=O)N[C@@H](CS)C(=O)N[C@@H](CC(=O)O)C(=O)N[C@@H](CCCNC(=N)N)C(=O)N[C@@H](Cc1ccccc1)C(=O)N[C@@H](Cc1ccc(O)cc1)C(=O)N1CCC[C@H]1C(=O)N[C@@H](CC(N)=O)C(=O)N[C@@H](CC(=O)O)C(=O)N[C@@H](CC(C)C)C(=O)N[C@@H](Cc1c[nH]c2ccccc12)C(=O)N[C@H](C(N)=O)C(C)C [biotin-msR4M-L1],"remaining at 16 h, 13.7 µM",in vitro [4],~45%
CC[C@H](C)[C@H](NC(=O)[C@H](Cc1ccc(O)cc1)NC(=O)[C@H](CCCNC(=N)N)NC(=O)[C@H](CC(=O)O)NC(=O)CCCCCCCCCCCNC(=O)CCCCCNC(=O)[C@H](CCCCN)NC(=O)[C@H](CS)NC(=O)[C@H](CC(C)C)NC(=O)[C@H](C)NC(=O)[C@H](CC(N)=O)NC(=O)CNC(=O)[C@H](C)NC(=O)[C@H](C)NC(=O)[C@H](C)NC(=O)[C@H](CC(N)=O)NC(=O)[C@H](C)NC(=O)[C@@H](NC(=O)[C@H](C)NC(=O)[C@@H](N)CC(=O)O)C(C)C)C(=O)N[C@@H](CS)C(=O)N[C@@H](CC(=O)O)C(=O)N[C@@H](CCCNC(=N)N)C(=O)N[C@@H](C)C(=O)N[C@@H](C)C(=O)N1CCC[C@H]1C(=O)N[C@@H](CC(N)=O)C(=O)N[C@@H](CC(=O)O)C(=O)N[C@@H](CC(C)C)C(=O)N[C@@H](C)C(=O)N[C@H](C(N)=O)C(C)C [msR4M-L1(7xAla)] (HELM PEPTIDE1{D.A.V.A.N.A.A.A.G.N.A.L.C.K.[O=C(CCCCCN[*:1])[*:2]].[O=C(CCCCCCCCCCCN[*:1])[*:2]].D.R.Y.I.C.D.R.A.A.P.N.D.L.A.V.[am]}$$$$V2.0),Kd,MIF,> 1 µM
same,Kd,"MIF; App. Kd Fluos-peptide/MIF, 1st curve, fluorescence spectroscopy, replicate 1",> 1 µM
same,Kd,"MIF; App. Kd Fluos-peptide/MIF, 2nd curve, fluorescence spectroscopy, replicate 2",> 1 µM
same,Kd,"MIF; App. Kd Fluos-peptide/MIF, 3rd curve, fluorescence spectroscopy, replicate 3",> 1 µM
same,Kd,"MIF; app. KD Fluos-labeled alanine analog/MIF, fluorescence titration spectroscopy, n=3",> 1 µM
same,inhibition of MIF-mediated B-cell chemotaxis,[5],failed to inhibit
same,inhibition of MIF-mediated DiI-LDL uptake,[2],failed to inhibit
CC[C@H](C)[C@H](NC(=O)[C@H](Cc1ccc(O)cc1)NC(=O)[C@H](CCCNC(=N)N)NC(=O)[C@H](CC(=O)O)NC(=O)CCCCCCCCCCCNC(=O)COCCOCCNC(=O)[C@H](CCCCN)NC(=O)[C@H](CS)NC(=O)[C@H](CC(C)C)NC(=O)[C@H](Cc1ccccc1)NC(=O)[C@H](CC(N)=O)NC(=O)CNC(=O)[C@H](Cc1ccccc1)NC(=O)[C@H](Cc1ccc(O)cc1)NC(=O)[C@H](Cc1c[nH]c2ccccc12)NC(=O)[C@H](CC(N)=O)NC(=O)[C@H](C)NC(=O)[C@@H](NC(=O)[C@H](C)NC(=O)[C@@H](N)CC(=O)O)C(C)C)C(=O)N[C@@H](CS)C(=O)N[C@@H](CC(=O)O)C(=O)N[C@@H](CCCNC(=N)N)C(=O)N[C@@H](Cc1ccccc1)C(=O)N[C@@H](Cc1ccc(O)cc1)C(=O)N1CCC[C@H]1C(=O)N[C@@H](CC(N)=O)C(=O)N[C@@H](CC(=O)O)C(=O)N[C@@H](CC(C)C)C(=O)N[C@@H](Cc1c[nH]c2ccccc12)C(=O)N[C@H](C(N)=O)C(C)C [msR4M-L2],inhibition of MIF-mediated B-cell chemotaxis,[5],fully blocked
same,aggregation propensity from concentration-dependent CD signal,[6],higher aggregation propensity

# From publication PMC7689490, “Designed CXCR4 mimic acts as a soluble chemokine receptor that blocks atherogenic inflammation by agonist-specific targeting” (Nature Communications, 2020)
